Results: patent US20250135009A1, “INTRATYMPANIC DRUG CONTROLLED RELEASE-TYPE FORMULATION COMPRISING N-ACYLATED GLYCOL CHITOSAN” (The Industry & Academic Cooperation in Chungnam National …, priority 2021, published 2025)
≈ marks a conversion by molar mass, not a printed value.

Assays:
physchem = test: physchem
Description: Changes in water solubility of dexamethasone (DEX) with changes in HGC concentration were analyzed. An excessive amount of DEX was added to 3 mL of an aqueous solution of HGC (PBS, HGC concentration=0 to 4%, w/v). The samples were then stirred for 30 minutes and incubated in a shaking water bath (100 rpm, 37° C.) for 24 hours. All the samples were filtered through a syringe filter (0.8 μm) to remove precipitates and then analyzed using a UV-visible spectrophotometer (V-730, JASCO, Korea). The solubility value of DEX was determined using a standard curve of various DEX concentrations obtained at 242 nm. The test was repeated three times.

[1] = In vitro drug release in PBS using a dialysis membrane; type: physicochemical; details: HGC 3.0 wt %, drug 2.0 wt % formulations and drug controls
Description: The in vitro drug release profiles of the thermogel formulations were examined in PBS (pH 7.4) using a dialysis membrane. […] Then, the dialysis bags were immersed in 50 mL of PBS and incubated in a shaking water bath (SI-600R, Jeio Tech, Seoul, Korea) at 37° C. and 100 rpm or less.
After incubation, 10 ml of the release medium was taken out and the same amount of fresh medium was added again. The collected samples were analyzed by UV-Vis measurement. The DEX release profile was determined by measuring the UV absorbance of DEX at 242 nm. The experiment was performed in triplicate and data are expressed as mean±SD.
023 microspheres loaded with dexamethasone were mixed with 4 wt % of HGC hydrogel. An in vitro drug release test was conducted in a PBS (pH 7.4, 50 ml) environment in the same manner as in Example 4. Sampling was performed at days 0, 0.5, 1, 2, 4, 7, 14, 21, 28, and 30.
Dexamethasone-loaded 061 or 062 microspheres were mixed with 4 wt % of HGC hydrogel, and an in vitro drug release test therefor was conducted in the same manner as the test for the 023.

C[C@@H]1C[C@H]2[C@@H]3CCC4=CC(=O)C=C[C@]4(C)[C@@]3(F)[C@@H](O)C[C@]2(C)[C@@]1(O)C(=O)CO [DEX, Dexamethasone]
increase of solubility of dexamethasone (physchem): about 4 times | solubility at 24 h (physchem; 37 °C, aqueous with cosolvent or surfactant or cyclodextrin, thermodynamic from solid): 221 µg/mL (≈ 563 µM) | solubility of dexamethasone in PBS (physchem; HGC 0 wt %, 37° C., 24 hours): 64 µg/mL

C[C@@H]1C[C@H]2[C@@H]3CCC4=CC(=O)C=C[C@]4(C)[C@@]3(F)[C@@H](O)C[C@]2(C)[C@@]1(O)C(=O)COP(=O)([O-])[O-].[Na+].[Na+] [DSP, DEX phosphate disodium salt]
drug release behavior (Example 8-2) [1]: completely released the drug quickly within a few hours
